In publication PMC12851022, “Targeting the Spliceosomal Protein USP39 Through Allosteric Ligands and PROTAC‐Induced Degradation” (Angewandte Chemie (International Ed. in English), 2025):
pKd: −log10 of the molar value.

Experiments:
USP39-OFP [1] = target: T1, USP39-OFP (Homo sapiens, UniProt Q53GS9); test: In-cell fluorescence degradation assay in HeLa-USP39-OFP cells; type: cell-based; details: 50 nM, 16-h serum starvation, 24-h treatment
T1 construct: expressed in transfected cells; host or cells: HeLa
T1 sequence (P40337 whole entry, one chain of several, further chain): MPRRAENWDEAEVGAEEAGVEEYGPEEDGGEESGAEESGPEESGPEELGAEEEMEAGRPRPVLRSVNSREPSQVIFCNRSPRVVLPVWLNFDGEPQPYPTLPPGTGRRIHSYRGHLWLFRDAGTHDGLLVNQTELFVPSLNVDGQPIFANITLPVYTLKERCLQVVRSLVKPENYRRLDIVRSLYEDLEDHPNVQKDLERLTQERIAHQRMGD
T1 sequence (Q15370 whole entry partner, one chain of several): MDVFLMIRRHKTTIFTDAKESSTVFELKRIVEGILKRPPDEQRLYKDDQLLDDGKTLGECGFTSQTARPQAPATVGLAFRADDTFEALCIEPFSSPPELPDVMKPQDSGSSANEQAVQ
T1 sequence (Q15369 whole entry partner, one chain of several): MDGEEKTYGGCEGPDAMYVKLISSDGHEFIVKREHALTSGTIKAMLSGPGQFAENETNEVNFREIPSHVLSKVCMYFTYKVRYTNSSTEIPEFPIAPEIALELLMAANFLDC
Method: To evaluate the degradation efficacy of USP39_PROTACs, we adapted our recently developed cellular fluorescence assay in HeLa cells transiently overexpressing USP39‐OFP (HeLa‐USP39‐OFP).^[ [32] ^] Various experimental conditions were tested, including different initial seeding densities, the presence or absence of serum starvation, varying treatment durations, and compound concentration gradients (Figure 4a). Among these, a 16‐h serum starvation followed by a 24‐h treatment provided the most consistent and reproducible degradation of USP39 and was used for further experiments. Under these experimental conditions, a series of CRBN‐ and VHL‐based PROTACs were evaluated in an in‐cell fluorescence assay at a concentration of 50 nM to assess their ability to induce target protein degradation (Figure 4b, Table SI4). […]
Figure 4 Effective and selective degradation of USP39 in cells by USP39‐PROTACs. a) Optimization of cellular degradation assay in HeLa cells transiently overexpressing USP39‑OFP (HeLa‐USP39‐OFP). […] Western blot comparing USP39 levels in VHL WT and VHL KO HeLa cells treated with USP39_PROTAC_V1. k) Fluorescence assay in HEK293T cells co‐expressing USP39‑OFP and either VHL_WT‑EGFP or VHL_m (Δ91–121). […]

[2] = target: T2, USP39 / VHL_m ternary complex (Homo sapiens, UniProt P40337+Q53GS9, DEL91-121); test: FRET assay of ternary complex formation in cells, VHL_m; type: cell-based; details: in the presence of MLN4924
T2 construct: expressed in transfected cells; host or cells: HEK293T
T2 sequence (P40337 with tags, fused parts or gaps DEL91-121, one chain of several): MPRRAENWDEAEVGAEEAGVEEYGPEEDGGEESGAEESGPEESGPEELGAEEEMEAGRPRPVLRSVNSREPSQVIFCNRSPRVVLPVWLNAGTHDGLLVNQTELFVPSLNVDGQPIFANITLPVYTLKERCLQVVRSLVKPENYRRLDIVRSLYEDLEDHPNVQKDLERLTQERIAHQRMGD
Method: (§1) Figure 4 Effective and selective degradation of USP39 in cells by USP39‐PROTACs. a) Optimization of cellular degradation assay in HeLa cells transiently overexpressing USP39‑OFP (HeLa‐USP39‐OFP). […] GAPDH was used as a loading control. g) Proteasome dependence of USP39 degradation. HeLa‐WT cells were co‐treated with MG132 (0.25 µM) or DMSO control and USP39_PROTAC_V1 for 24 h ST. h) Representative immunofluorescence images of HeLa‐USP39_OFP cells treated with DMSO (NT), USP39_PROTAC_V1 (10 nM, 24 h), or USP39_PROTAC_V1 + MLN4924 (1 µM), stained for USP39 (red) and nuclei (blue). i) Quantification of USP39 degradation by fluorescence microscopy, showing DC50 values of 13 nM without MLN4924 (orange) and 204 nM with MLN4924 (blue) (MLN4924 = 5 uM). j) VHL‐dependence of PROTAC‐induced degradation. Schematic of PROTAC recruitment to VHL via hydroxyl‐proline interactions (His115, Ser111). Western blot comparing USP39 levels in VHL WT and VHL KO HeLa cells treated with USP39_PROTAC_V1. k) Fluorescence assay in HEK293T cells co‐expressing USP39‑OFP and either VHL_WT‑EGFP or VHL_m (Δ91–121). […] Comparison of untreated (NT) and USP39_PROTAC_V1–treated (10 nM, 24 h) samples. Percent spliced/unspliced (S/U) ratios are shown, reflecting USP39‐deficiency–associated splicing defects. Data represent at least four independent biological replicates. […]

USP39_T2 = target: T3, USP39_T2 (Homo sapiens, UniProt Q53GS9); test: Isothermal titration calorimetry (ITC); type: binding
T3 construct: USP39_T2 (ZNF domain only); made in house
T3 sequence (Q53GS9 103-200 limits assumed): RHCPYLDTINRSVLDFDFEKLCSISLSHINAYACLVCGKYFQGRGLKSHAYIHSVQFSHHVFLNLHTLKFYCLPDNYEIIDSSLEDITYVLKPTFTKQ

USP39 / VHL = USP39 / VHL (Homo sapiens, UniProt P40337+Q53GS9); test: Co-immunoprecipitation of VHL with western blot for ubiquitin, USP39 and VHL; type: cell-based; details: in the presence of MLN4924
USP39 / VHL, sequence (P40337 whole entry, one chain of several): as the sequence (P40337 whole entry, one chain of several, further chain) above
USP39 / VHL, sequence (Q15370 whole entry partner, one chain of several): as the sequence (Q15370 whole entry partner, one chain of several) above
USP39 / VHL, sequence (Q15369 whole entry partner, one chain of several): as the sequence (Q15369 whole entry partner, one chain of several) above

USP39 [3] = target: T4, USP39 (Homo sapiens, UniProt Q53GS9); test: Western blot of USP39 levels in HeLa-WT cells; type: cell-based; set-up: endogenous in cells; host or cells: HeLa-WT; details: MG132 0.25 µM, 24 h ST
T4 sequence (Q53GS9 1-565): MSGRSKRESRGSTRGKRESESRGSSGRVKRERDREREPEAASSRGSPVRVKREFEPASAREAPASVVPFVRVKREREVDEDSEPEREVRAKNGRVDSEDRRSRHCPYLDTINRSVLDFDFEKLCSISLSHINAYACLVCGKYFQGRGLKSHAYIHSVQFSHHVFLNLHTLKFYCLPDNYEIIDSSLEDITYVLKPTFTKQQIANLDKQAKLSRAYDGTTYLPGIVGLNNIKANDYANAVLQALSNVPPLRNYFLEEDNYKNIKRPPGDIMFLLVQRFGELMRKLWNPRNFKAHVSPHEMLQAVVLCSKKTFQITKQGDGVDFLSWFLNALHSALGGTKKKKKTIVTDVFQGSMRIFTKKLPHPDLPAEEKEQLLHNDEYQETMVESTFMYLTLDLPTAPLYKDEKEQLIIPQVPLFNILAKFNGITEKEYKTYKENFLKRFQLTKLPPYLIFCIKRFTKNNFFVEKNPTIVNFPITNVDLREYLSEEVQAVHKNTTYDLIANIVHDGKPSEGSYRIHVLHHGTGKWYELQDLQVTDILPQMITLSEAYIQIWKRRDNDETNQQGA
Method: as §1

USP39-OFP [4] = target: T5, USP39-OFP (Homo sapiens, UniProt P40337+Q53GS9); test: Fluorescence degradation assay in HEK293T cells co-expressing USP39-OFP and VHL_WT-EGFP; type: cell-based; details: VHL WT (VHL_WT-EGFP co-expressed)
T5 construct: expressed in transfected cells
T5 sequence (P40337 whole entry, one chain of several): as the sequence (P40337 whole entry, one chain of several, further chain) above
T5 sequence (Q15370 whole entry partner, one chain of several): as the sequence (Q15370 whole entry partner, one chain of several) above
T5 sequence (Q15369 whole entry partner, one chain of several): as the sequence (Q15369 whole entry partner, one chain of several) above
Method: as §1

USP39 [5] = target: T4, USP39; test: Western blot of USP39 levels in VHL KO HeLa cells; type: cell-based; set-up: endogenous in cells; host or cells: VHL-KO HeLa
Method: as §1

Compound: Cc1ncsc1-c1ccc(CNC(=O)C2CC(O)CN2C(=O)C(NC(=O)CCOCCOCCOCCNC(=O)c2csc(Nc3ccc(Cl)cc3)n2)C(C)(C)C)cc1 (stereo not shown) [USP39_PROTAC_V1]
- USP39 degradation in in-cell fluorescence assay (USP39-OFP [1]): robust degradation activity
- FRET signal of ternary complex formation [2]: minimal signal
- pKd (USP39_T2): 6.87
- Co-immunoprecipitation from VHL pull-downs (USP39 / VHL): enrichment of USP39 and polymerized ubiquitin
- USP39 degradation under co-treatment with proteasome inhibitor MG132 (USP39 [3]): markedly suppressed USP39 degradation
- DC50 (USP39-OFP [4]): 1 nM
- USP39 degradation in VHL-KO HeLa cells (USP39 [5]): significantly attenuated
